The values below come from publication PMC4278837, “A Cyclic Peptidic Serine Protease Inhibitor: Increasing Affinity by Increasing Peptide Flexibility” (PLoS ONE, 2014).

One experiment addresses T1, muPA S190A (Mus musculus, UniProt P06869, S373A).
T1 construct: To ensure that the uPAs purified from the conditioned media were completely in the two-chain form, they were treated with plasmin; hexa-His (C); made in house; host or cells: HEK293 6E suspension cells
Briefly: Ki for inhibition of muPA-S190A, chromogenic substrate. It counts as biochemical, murine. Conditions: means ± S.D.; read-out: K i for inhibition of muPA-S190A. An excerpt: (§1) Determination of Ki values
(§2) The initial reaction velocities were monitored at an absorbance of 405 nm. The inhibition constants (K i) were subsequently determined from the non-linear regression analyses of plots for V i/V o versus [I]0, using Equation 2, derived under assumption of competitive inhibition:
(§3) [drawing 2] (2) where V i and V 0 are the reaction velocities in the presence and absence of inhibitor, respectively; [S]0 and [I]0 are the substrate and inhibitor concentrations, respectively; K M is K M for substrate hydrolysis by each protease. In Equation 2, it is assumed that [S]free ≈ [S]0 and [I]free ≈ [I]0.

The next experiment addresses huPA-H99Y Q192A (Homo sapiens, UniProt P00749, H272Y/Q373A). The experiment can be described thus: Ki for inhibition of huPA-H99Y-Q192A, chromogenic substrate. The class given is biochemical. Set-up: To ensure that the uPAs purified from the conditioned media were completely in the two-chain form, they were treated with plasmin; hexa-His (C); made in house; host or cells: HEK293 6E suspension cells. Conditions: 37°C; means ± S.D.; read-out: K i for inhibition of huPA-H99Y-Q192A.
Description: as §1, §2, §3

Another experiment deals with T2, muPA K41A (Mus musculus, UniProt P06869, K210A).
T2 construct: To ensure that the uPAs purified from the conditioned media were completely in the two-chain form, they were treated with plasmin; hexa-His (C); made in house; host or cells: HEK293 6E suspension cells
T2 sequence (P06869 180-433 K210A): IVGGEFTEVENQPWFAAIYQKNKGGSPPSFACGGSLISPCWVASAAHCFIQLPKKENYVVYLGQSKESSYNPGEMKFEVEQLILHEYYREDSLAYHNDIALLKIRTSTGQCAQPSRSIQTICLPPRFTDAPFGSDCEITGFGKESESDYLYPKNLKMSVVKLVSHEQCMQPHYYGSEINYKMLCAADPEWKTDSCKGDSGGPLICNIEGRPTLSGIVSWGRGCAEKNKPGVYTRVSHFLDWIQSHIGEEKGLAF
T2 sequence (P06869 21-178 partner limits assumed): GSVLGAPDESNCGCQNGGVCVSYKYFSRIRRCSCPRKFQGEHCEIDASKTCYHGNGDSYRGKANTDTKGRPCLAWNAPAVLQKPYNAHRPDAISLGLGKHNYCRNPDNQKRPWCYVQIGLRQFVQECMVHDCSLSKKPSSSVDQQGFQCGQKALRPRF
The experiment can be described thus: Ki for inhibition of muPA-K41A, chromogenic substrate. The class given is biochemical, murine. Conditions: means ± S.D.; read-out: K i for inhibition of muPA-K41A.
Description: as §1, §2, §3

For a further experiment, the target named is T3, muPA K143A (Mus musculus, UniProt P06869, K322A).
T3 construct: To ensure that the uPAs purified from the conditioned media were completely in the two-chain form, they were treated with plasmin; hexa-His (C); made in house; host or cells: HEK293 6E suspension cells
T3 sequence (P06869 180-433 K322A): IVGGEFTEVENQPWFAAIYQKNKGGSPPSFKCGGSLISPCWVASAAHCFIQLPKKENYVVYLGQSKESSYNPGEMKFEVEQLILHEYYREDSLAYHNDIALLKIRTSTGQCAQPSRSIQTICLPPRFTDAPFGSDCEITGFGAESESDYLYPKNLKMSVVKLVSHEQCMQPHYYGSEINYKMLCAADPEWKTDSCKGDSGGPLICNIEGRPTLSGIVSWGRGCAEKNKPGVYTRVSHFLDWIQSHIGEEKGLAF
T3 sequence (P06869 21-178 partner limits assumed): as the sequence (P06869 21-178 partner limits assumed) above
The experiment can be described thus: Ki for inhibition of muPA-K143A, chromogenic substrate. It counts as biochemical, murine. Conditions: means ± S.D.; read-out: K i for inhibition of muPA-K143A.
Description: as §1, §2, §3

The target of another experiment is T4, muPA V213T (Mus musculus, UniProt P06869, V396T).
T4 construct: To ensure that the uPAs purified from the conditioned media were completely in the two-chain form, they were treated with plasmin; hexa-His (C); made in house; host or cells: HEK293 6E suspension cells
T4 sequence (P06869 180-433 V396T): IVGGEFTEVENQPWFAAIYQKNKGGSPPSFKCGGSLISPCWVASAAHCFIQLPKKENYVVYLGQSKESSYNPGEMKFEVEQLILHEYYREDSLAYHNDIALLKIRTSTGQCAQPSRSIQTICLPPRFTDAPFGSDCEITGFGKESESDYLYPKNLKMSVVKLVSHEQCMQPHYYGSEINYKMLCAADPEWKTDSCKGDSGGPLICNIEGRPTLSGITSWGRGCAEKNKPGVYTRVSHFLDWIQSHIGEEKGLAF
T4 sequence (P06869 21-178 partner limits assumed): as the sequence (P06869 21-178 partner limits assumed) above
Briefly: Ki for inhibition of muPA-V213T, chromogenic substrate. The class given is biochemical, murine. Conditions: means ± S.D.; read-out: K i for inhibition of muPA-V213T.
Description: as §1, §2, §3

Experiment [1] has as its target T5, huPA-H99Y (Homo sapiens, UniProt P00749, H272Y).
T5 construct: To ensure that the uPAs purified from the conditioned media were completely in the two-chain form, they were treated with plasmin; hexa-His (C); made in house; host or cells: HEK293 6E suspension cells
Briefly: Surface plasmon resonance analysis of peptide binding to huPA-H99Y. Conditions: SPR, 25°C, pH 7.4. The method, then:
(§4) Surface plasmon resonance (SPR) analysis
(§5) To determine the equilibrium binding constants (KD), the association rate constants (kon) and dissociation rate constants (koff) for peptide binding to uPA, surface plasmon resonance analysis was performed on a Biacore T200 instrument (Biacore, Uppsala, Sweden). A CM5 chip was coupled with the uPA variant (muPA or huPAH99Y) to be analysed, by injecting a concentration of 30 µg/mL uPA in immobilization buffer (10 mM sodium acetate, pH 5.0), aiming for an immobilised level of approximately 500 response units (RU). Immobilisation was followed by surface blocking with ethanolamine. A reference cell was prepared in the same way, without coupling of uPA. Mupain-1 variants in HBS with 0.1% BSA, in a dilution series, were injected at a flow rate of 30 µL per min during 60 s at 25°C. Subsequently, the dissociation was monitored during 600 s. Kinetic constants (k on and k off) were calculated with the Biacore Evaluation Software, using the 1∶1 kinetic fit. The K D values were calculated as k off /k on.

Experiment [2] addresses T6, huPA-H99Y (Homo sapiens, UniProt P00749, C299A/H272Y/N322Q).
T6 construct: recombinant uPA catalytic domain (residues 159–411), harbouring a H99Y mutation; made in house; host or cells: Pichia pastoris X-33 (secreted)
The experiment can be described thus: Isothermal titration calorimetry for binding to huPA-H99Y catalytic domain. The conditions noted are these: ITC, 25°C, pH 7.4. Here is the method:
For these experiments, we used the catalytic domain of huPA-H99Y expressed in and purified from Pichia pastoris strain X-33 (see above). The protein was dissolved in and dialysed against a buffer of 20 mM sodium phosphate, pH 7.4, 140 mM NaCl. The protein concentration was determined by absorbance at 280 nm, using an extinction coefficient of 43810 M^−1cm^−1. The peptides were dissolved in the above-mentioned buffer. All isothermal titration calorimetry experiments were performed with a MicroCal^TM ITC200 instrument equilibrated to a temperature of 25°C (298oK). The concentration of uPA-H99Y catalytic domain used in the 200 µl sample cell was 5–50 µM, depending on the affinity of the ligand. Titrations were performed by injecting 2 µl of the ligand until the total syringe volume of 40 µl was spent. Titration of ligand into buffer was performed to obtain buffer correction. The equilibrium association constant KA and the reaction enthalpy ΔH were calculated by fitting the integrated titration peaks using a one-binding-site model in the ITC ORIGIN7 programme package. The following formulas for Gibbs free energy ΔG were used to analyse the measured energies
[drawing 4] (4) where R is the gas constant and T the absolute temperature. ΔS, the entropic change during the reaction, was calculated using equations 3 and 4 and the measured K A and ΔH values.

The target of the next experiment is T7, muPA (Mus musculus, UniProt P06869).
T7 construct: To ensure that the uPAs purified from the conditioned media were completely in the two-chain form, they were treated with plasmin; hexa-His (C); made in house; host or cells: HEK293 6E suspension cells
T7 sequence (P06869 180-433 limits assumed): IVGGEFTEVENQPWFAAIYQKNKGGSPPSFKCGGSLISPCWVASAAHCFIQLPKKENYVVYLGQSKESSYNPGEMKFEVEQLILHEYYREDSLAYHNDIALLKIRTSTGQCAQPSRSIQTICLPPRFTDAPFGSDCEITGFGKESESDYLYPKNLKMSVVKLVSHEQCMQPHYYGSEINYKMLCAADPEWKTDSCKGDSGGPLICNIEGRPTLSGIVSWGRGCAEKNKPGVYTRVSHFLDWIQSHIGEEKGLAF
T7 sequence (P06869 21-178 partner limits assumed): as the sequence (P06869 21-178 partner limits assumed) above
Briefly: Surface plasmon resonance analysis of peptide binding to muPA. The conditions noted are these: SPR, 25°C, pH 7.4. On the set-up: species or system murine. Here is the method:
as §4, §5

In the next experiment the target is T8, huPA-H99Y V41A (Homo sapiens, UniProt P00749, H272Y/V208A).
T8 construct: To ensure that the uPAs purified from the conditioned media were completely in the two-chain form, they were treated with plasmin; hexa-His (C); made in house; host or cells: HEK293 6E suspension cells
The experiment can be described thus: Ki for inhibition of huPA-H99Y-V41A, chromogenic substrate. The class given is biochemical. Conditions: 37°C; means ± S.D.; read-out: K i for inhibition of huPA-H99Y-V41A.
Description: as §1, §2, §3

For a further experiment, the target named is T9, muPA wt (Mus musculus, UniProt P06869).
T9 construct: To ensure that the uPAs purified from the conditioned media were completely in the two-chain form, they were treated with plasmin; hexa-His (C); made in house; host or cells: HEK293 6E suspension cells
T9 sequence (P06869 180-433 limits assumed): as the sequence (P06869 180-433 limits assumed) above
T9 sequence (P06869 21-178 partner limits assumed): as the sequence (P06869 21-178 partner limits assumed) above
Briefly: Ki for inhibition of muPA wt, chromogenic substrate. The class given is biochemical, murine. Conditions: means ± S.D.; read-out: K i for inhibition of muPA wt.
Description: as §1, §2, §3

A further experiment concerns the target T10, muPA Y99A (Mus musculus, UniProt P06869, Y274A).
T10 construct: To ensure that the uPAs purified from the conditioned media were completely in the two-chain form, they were treated with plasmin; hexa-His (C); made in house; host or cells: HEK293 6E suspension cells
Briefly: Ki for inhibition of muPA-Y99A, chromogenic substrate. It counts as biochemical, murine. Conditions: means ± S.D.; read-out: K i for inhibition of muPA-Y99A.
Description: as §1, §2, §3

A further experiment addresses T11, huPA-H99Y R35A (Homo sapiens, UniProt P00749, H272Y/R198A).
T11 construct: To ensure that the uPAs purified from the conditioned media were completely in the two-chain form, they were treated with plasmin; hexa-His (C); made in house; host or cells: HEK293 6E suspension cells
Briefly: Ki for inhibition of huPA-H99Y-R35A, chromogenic substrate. The class given is biochemical. Conditions: 37°C; means ± S.D.; read-out: K i for inhibition of huPA-H99Y-R35A.
Description: as §1, §2, §3

In experiment [3] the target is T5, huPA-H99Y. The experiment can be described thus: Ki for inhibition of huPA-H99Y, chromogenic substrate S-2444. It counts as biochemical. The conditions noted are these: 37°C; means ± S.D.; read-out: K i for inhibition of huPA-H99Y.
Description: as §1, §2, §3

Bridge positions count the residues as written; N and C are the ends. Square brackets hold non-standard residues; d marks the D form. Peptide text beside a SMILES is read from it. Phe(4-guanidino) = N=C(N)Nc1ccc(C[C@H](N)C(=O)O)cc1

T1 sequence (P06869 180-433 S373A): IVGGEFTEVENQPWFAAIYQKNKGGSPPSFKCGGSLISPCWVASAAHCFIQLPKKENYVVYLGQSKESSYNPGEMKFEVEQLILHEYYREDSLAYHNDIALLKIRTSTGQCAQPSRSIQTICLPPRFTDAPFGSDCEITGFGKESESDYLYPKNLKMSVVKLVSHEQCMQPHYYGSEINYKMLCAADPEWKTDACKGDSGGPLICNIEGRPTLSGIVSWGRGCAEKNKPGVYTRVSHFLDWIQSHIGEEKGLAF
T1 sequence (P06869 21-178 partner limits assumed): as the sequence (P06869 21-178 partner limits assumed) above
T10 sequence (P06869 180-433 Y274A): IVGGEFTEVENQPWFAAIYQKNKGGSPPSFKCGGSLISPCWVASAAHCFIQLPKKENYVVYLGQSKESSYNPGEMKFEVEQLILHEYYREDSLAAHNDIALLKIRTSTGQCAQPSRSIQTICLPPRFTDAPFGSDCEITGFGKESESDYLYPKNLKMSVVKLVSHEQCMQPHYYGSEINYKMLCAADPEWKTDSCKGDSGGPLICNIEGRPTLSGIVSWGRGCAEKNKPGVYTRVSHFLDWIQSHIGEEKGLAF
T10 sequence (P06869 21-178 partner limits assumed): as the sequence (P06869 21-178 partner limits assumed) above

With `CC(=O)N[C@H]1CSSC[C@@H](C(N)=O)NC(=O)[C@H](C)NC(=O)[C@H](CC(C)C)NC(=O)[C@H](Cc2ccc(O)cc2)NC(=O)[C@H](Cc2ccc(NC(=N)N)cc2)NC(=O)[C@H](CO)NC(=O)[C@H](Cc2ccc(O)cc2)NC(=O)[C@H](C)NC(=O)[C@@H]2CCCN2C1=O` [Mupain-1-12 D9A, CPAYS[4-guanidino-phenyl-alanine]YLAC] (Ac-CPAYS[Phe(4-guanidino)]YLAC-NH2; disulfide 1-10; N-terminus assumed), the Ki was determined as 3520 ± 500 nM on muPA S190A; 438 ± 79 nM at huPA-H99Y Q192A; 91 ± 7 nM at muPA K41A; 1000 ± 30 nM on muPA K143A; 166 ± 75 nM at muPA V213T; 478 ± 137 nM on huPA-H99Y V41A. Moreover, the Ki on muPA wt came out at 190 ± 10 nM; on muPA Y99A, 5890 ± 1310 nM; on huPA-H99Y R35A it was 231 ± 78 nM; at huPA-H99Y [3], 186 ± 36 nM. Further, the “k off, huPA-H99Y” value on huPA-H99Y [1] was 7.94±0.39 (3) s^-1, ×10^2. Also, the “k on, huPA-H99Y” value at huPA-H99Y [1] is 5.93±0.33 (3) M^-1s^-1, ×10^-5. Moreover, the Kd is 134 ± 2 nM at huPA-H99Y [1] (calculated as k off/k on, read-out: K D, huPA-H99Y); 138 ± 47 nM on huPA-H99Y [2]; 177 ± 51 nM at muPA (calculated as k off/k on, read-out: K D, muPA). In addition, on huPA-H99Y [2], the N was 0.88±0.01 (3). In addition, the TΔS at huPA-H99Y [2] was −18.9±5.1 (3) ^1 kJ/mole. Moreover, at huPA-H99Y [2], the ΔG is on record as −39.2±0.8 (3) ^1 kJ/mole. The ΔH at huPA-H99Y [2] is listed as −60.1±5.4 (3) ^1 kJ/mole. Besides, the “k off, muPA” value on muPA is given as 3.94±0.30 (3) s^−1, ×10^2. Further, the “k on, muPA” value at muPA is reported as 2.42±1.01 (3) M^−1s^−1, ×10^−5.
